Experiments:
[1] = target: T1, acetylcholinesterase (AChE, TcAChE) (Tetronarce californica, UniProt P04058); assay: Ellman colorimetric assay with commercial enzyme, […] nm; type: biochemical
[2] = target: T1, acetylcholinesterase (AChE, TcAChE); assay: Ellman colorimetric assay with commercial enzyme, […] nm (positive control); type: biochemical

T1 sequence (P04058 22-564): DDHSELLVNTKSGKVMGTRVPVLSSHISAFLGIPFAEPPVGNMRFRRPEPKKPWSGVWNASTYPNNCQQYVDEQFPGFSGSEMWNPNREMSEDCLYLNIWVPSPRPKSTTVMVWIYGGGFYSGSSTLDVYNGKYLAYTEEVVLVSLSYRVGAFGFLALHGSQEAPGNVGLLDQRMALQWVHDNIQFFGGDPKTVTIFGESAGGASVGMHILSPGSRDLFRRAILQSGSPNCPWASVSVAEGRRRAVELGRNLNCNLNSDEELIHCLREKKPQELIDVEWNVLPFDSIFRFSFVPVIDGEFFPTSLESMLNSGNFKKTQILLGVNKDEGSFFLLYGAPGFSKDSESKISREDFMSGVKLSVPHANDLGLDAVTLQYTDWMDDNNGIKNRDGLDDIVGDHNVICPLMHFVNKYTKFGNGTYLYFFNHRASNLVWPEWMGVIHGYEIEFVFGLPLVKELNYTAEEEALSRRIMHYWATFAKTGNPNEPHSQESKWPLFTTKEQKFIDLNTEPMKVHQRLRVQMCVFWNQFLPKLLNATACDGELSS

How did the IC50 [1] turn out when `CN(CCCCNC(=O)/C=C/c1ccccc1)CCCNC(=O)/C=C/c1ccccc1` [compound 1, 5-N-methylmaytenine] was run?
The IC50 was 19.6 µM.

For `COC1=CC2CCNC3CC4(C=CC(=O)C=C4)C(=C1OC)C23` (stereo not drawn) [compound 2, stepharine], which IC50 [1] is on record?
Its IC50 is 61.2 µM.

For `CN(C)C(=O)Oc1cccc([N+](C)(C)C)c1` [neostigmine], which IC50 [2] is on record?
Its IC50 is 3.72 µM.
